Laboratory results taken from ChEMBL document CHEMBL4837258, “Discovery of Novel UDP-N-Acetylglucosamine Acyltransferase (LpxA) Inhibitors with Activity against Pseudomonas aeruginosa” (J Med Chem, 2021).
Converted amounts (≈) assume the structure as drawn.

Tests used:
physchem = conditions: 1-octanol/phosphate buffer, pH 7.4
[1] = Aqueous solubility of compound incubated for 90 mins under shaking condition; type: physicochemical; conditions: buffer
[2] = AUCinfinity in CD1 mouse at 85 mg/kg, iv measured upto 7 hrs by LC-MS/MS analysis; type: ADME, organism-based; parameters: route intravenous, dose 85 mg/kg, time <=7; conditions: in vivo
[3] = Oral bioavailability in CD1 mouse at 5 mg/kg measured upto 7 hrs by LC-MS/MS analysis; type: ADME, organism-based; conditions: in vivo
[4] = Volume of distribution at steady state in CD1 mouse at 85 mg/kg, iv measured upto 7 hrs by LC-MS/MS analysis; type: ADME, organism-based; conditions: in vivo, read-out: Vdss
[5] = AUCinfinity in CD1 mouse at 5 mg/kg, po pretreated with ABT followed by compound treatment and measured upto 7 hrs by LC-MS/MS analysis; type: ADME, organism-based; parameters: route oral, dose 5 mg/kg, time <=7; conditions: in vivo
[6] = AUCinfinity in CD1 mouse at 3 mg/kg, iv pretreated with ABT followed by compound treatment and measured upto 7 hrs by LC-MS/MS analysis; type: ADME, organism-based; parameters: route intravenous, dose 3 mg/kg, time <=7; conditions: in vivo
[7] = AUCinfinity in CD1 mouse at 3 mg/kg, iv measured upto 7 hrs by LC-MS/MS analysis; type: ADME, organism-based; parameters: route intravenous, dose 3 mg/kg, time <=7; conditions: in vivo
[8] = Volume of distribution at steady state in CD1 mouse at 3 mg/kg, iv measured upto 7 hrs by LC-MS/MS analysis; type: ADME, organism-based; conditions: in vivo, read-out: Vdss
[9] = Volume of distribution at steady state in CD1 mouse at 3 mg/kg, iv pretreated with ABT followed by compound treatment and measured upto 7 hrs by LC-MS/MS analysis; type: ADME, organism-based; conditions: in vivo, read-out: Vdss
[10] = Oral bioavailability in CD1 mouse at 3 mg/kg pretreated with ABT followed by compound treatment and measured upto 7 hrs by LC-MS/MS analysis; type: ADME, organism-based; conditions: in vivo
[11] = AUCinfinity in CD1 mouse at 1 mg/kg, iv pretreated with ABT followed by compound treatment and measured upto 7 hrs by LC-MS/MS analysis; type: ADME, organism-based; parameters: route intravenous, dose 1 mg/kg, time <=7; conditions: in vivo
[12] = AUCinfinity in CD1 mouse at 30 mg/kg, po pretreated with ABT followed by compound treatment and measured upto 7 hrs by LC-MS/MS analysis; type: ADME, organism-based; parameters: route oral, dose 30 mg/kg, time <=7; conditions: in vivo
[13] = Volume of distribution at steady state in CD1 mouse at 5 mg/kg, iv pretreated with ABT followed by compound treatment and measured upto 7 hrs by LC-MS/MS analysis; type: ADME, organism-based; conditions: in vivo, read-out: Vdss
[14] = Volume of distribution at steady state in CD1 mouse at 1 mg/kg, iv pretreated with ABT followed by compound treatment and measured upto 7 hrs by LC-MS/MS analysis; type: ADME, organism-based; conditions: in vivo, read-out: Vdss
[15] = Oral bioavailability in CD1 mouse at 30 mg/kg pretreated with ABT followed by compound treatment and measured upto 7 hrs by LC-MS/MS analysis; type: ADME, organism-based; conditions: in vivo
[16] = AUCinfinity in CD1 mouse at 3 mg/kg, po pretreated with ABT followed by compound treatment and measured upto 7 hrs by LC-MS/MS analysis; type: ADME, organism-based; parameters: route oral, dose 3 mg/kg, time <=7; conditions: in vivo
[17] = AUCinfinity in CD1 mouse at 5 mg/kg, iv pretreated with ABT followed by compound treatment and measured upto 7 hrs by LC-MS/MS analysis; type: ADME, organism-based; parameters: route intravenous, dose 5 mg/kg, time <=7; conditions: in vivo

Structure (SMILES)	logD at 2 h, 25 µM (physchem)	solubility at […] [1] [µg/mL]	further results
CCc1c(F)cc(F)cc1OCC(=O)N(Cc1nnc(N)o1)Cc1ccc(C#N)cc1F	2.7		
N#Cc1ccc(CN(Cc2nnc(N)o2)C(=O)CSc2ccccc2Cl)cn1	1.4	340 (≈ 820 µM)	
N#Cc1ccc(CN(Cc2nnc(N)o2)C(=O)COc2cc(F)cc(F)c2C2CC2)cn1	2.2		
CCc1ccccc1SCC(=O)N(Cc1ccc(C#N)cc1)Cc1nnc(N)o1	2.5		
N#Cc1ccc(CN(Cc2nnc(N)o2)C(=O)CSc2ccccc2CC(F)(F)F)c(F)c1	2.3	90 (≈ 188 µM)	
[2H]C([2H])(Oc1cc(F)cc(F)c1C([2H])([2H])C([2H])([2H])[2H])C(=O)N(Cc1nnc(N)o1)Cc1ccc(C#N)cc1F	3		
Nc1nnc(CN(Cc2ccc(S(N)(=O)=O)cc2F)C(=O)COc2cc(F)cc(F)c2C2CC2)o1	2.1		
Nc1nnc(CN(Cc2ccc(O)nc2)C(=O)COc2cc(F)cc(F)c2C2CC2)o1	2.2	150 (≈ 348 µM)	
CCc1c(F)cc(F)cc1O[C@H](C)C(=O)N(Cc1nnc(N)o1)Cc1ccc(C#N)cc1F	3		
N#Cc1ccc(CN(Cc2nnc(N)o2)C(=O)CSc2ccccc2OC(F)(F)F)c(F)c1	1.6	90 (≈ 187 µM)	
Nc1nnc(CN(Cc2ccc(S(N)(=O)=O)cc2F)C(=O)CSc2cc(F)cc(F)c2Cl)o1	1.8	330 (≈ 632 µM)	

Second part, led by results:

logD at 2 h, 25 µM (physchem)	solubility at […] [1] [µg/mL]	Structure (SMILES)	further results
2	460 (≈ 908 µM)	[2H]C([2H])(Oc1cc(F)cc(F)c1C([2H])([2H])C([2H])([2H])[2H])C(=O)N(Cc1nnc(N)o1)Cc1ccc(S(N)(=O)=O)cc1F	AUC(0-inf) [2]: 24000 ng·h/mL; bioavailability [3]: 7.4%; Vd [4]: 10.3 L/kg; AUC(0-inf) [5]: 7690 ng·h/mL; AUC(0-inf) [6]: 35300 ng·h/mL; AUC(0-inf) [7]: 62100 ng·h/mL; Vd [8]: 0.34 L/kg; Vd [9]: 0.31 L/kg
2.1		CCc1c(F)cc(F)cc1OCC(=O)N(Cc1nnc(N)o1)Cc1ccc(S(N)(=O)=O)cc1F	
1	850 (≈ 2130 µM)	N#Cc1ccc(CN(Cc2nnc(N)o2)C(=O)COc2ccccc2Cl)cn1	
2.4	60 (≈ 123 µM)	N#Cc1cc(F)c(CN(Cc2nnc(N)o2)C(=O)CSc2cc(F)cc(F)c2Cl)c(F)c1	
1.5		N#Cc1ccc(CN(Cc2nnc(N)o2)C(=O)CCc2ccccc2)cn1	
2.6		N#Cc1ccc(CN(Cc2nnc(N)o2)C(=O)CSc2cc(F)cc(F)c2Cl)c(F)c1	
2.8		CCc1c(F)cc(F)cc1OCC(=O)N(Cc1ccc(C#N)cc1)Cc1nnc(N)o1	bioavailability [10]: 48.6%; AUC(0-inf) [11]: 218 ng·h/mL; AUC(0-inf) [12]: 9180 ng·h/mL; Vd [13]: 3.3 L/kg; Vd [14]: 3.97 L/kg; bioavailability [15]: 138%; AUC(0-inf) [16]: 323 ng·h/mL; AUC(0-inf) [17]: 1040 ng·h/mL
1.1		N#Cc1ccc(CN(Cc2nnc(N)o2)C(=O)CSc2ncccc2Cl)cn1	
2	120 (≈ 290 µM)	N#Cc1ccc(CN(Cc2nnc(N)o2)C(=O)CSc2ccccc2Cl)cc1	
1.4		N#Cc1ccc(CN(Cc2nnc(N)o2)C(=O)COc2cc(F)cc(F)c2Cl)cn1	
2.1		[2H]C([2H])(Oc1cc(F)cc(F)c1C([2H])([2H])C([2H])([2H])[2H])C(=O)N(Cc1ccc(C#N)nc1)Cc1nnc(N)o1	
